Assay results taken from US12691070B2, “Cationic lipids and preparation method thereof” (RiboX Therapeutics HK Limited, priority 2023, dated 2026).

Key:
[1] = LNP size and polydispersity index (PDI) by dynamic light scattering; format: physicochemical; conditions: LNP with cirRNA (SEQ ID NO: 1); for Size: in nm (unit assumed)
Method in brief: (§1)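 LNPs of ionizable lipid/DSPC/cholesterol/DMG-PEG 2000 (50:10:38.5:1.5) made by microfluidic mixing of luciferase circRNA or mRNA in pH 4.5 acetate with lipids in ethanol (3:1, 12 ml/min), ionizable lipid:nucleotide 15 or 6, then dialyzed against PBS. Size, PDI (DLS) and zeta potential on Zetasizer; encapsulation by Ribogreen ± Triton X-100.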

BALB/C mice = experiment: In vivo expression, whole-body luminescence (IVIS); conditions: cirRNA (SEQ ID NO: 1) LNPs, BALB/C mice
Protocol: 6-8 week old, female BALB/C mice were injected with 0.05 mg*kg-1 of RNA-LNPs encoding for firefly-luciferase by intravenous injection. At 6 hours post injection, animals were intraperitoneally injected with 15 mg/ml of Luciferin substrate and whole-body luminescence was determined by a bioluminescent in vivo imaging system (IVIS).

RAW 264.7 cells [2] = experiment: In vitro toxicity (CellTiter-Glo cell viability), RAW 264.7; format: cell-based; conditions: cirRNA (SEQ ID NO: 1) LNPs; RAW 264.7 cells;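 note: percent of untreated cells luminescence signal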
Method in brief: (§2)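 First, cells receive RNA-LNPs at 1 μg/mL by transfection. After 72 hours, CellTiter-Glo reagent is added per kit protocol. Luminescence is then read and converted to cell viability.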

[3] = RNA encapsulation efficacy by Quant-IT Ribogreen kit; format: physicochemical; conditions: LNP with cirRNA (SEQ ID NO: 1)
Method in brief: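 Ribogreen fluorescence with and without Triton X-100 gave encapsulation as 100% − (intact/lysed) signal; DLS size, PDI and zeta potential measured on a Zetasizer. Particles: 50:10:38.5:1.5 lipid mix, luciferase circRNA or mRNA, lipid:nucleotide 15 or 6, microfluidic assembly at pH 4.5, PBS-dialyzed.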

Hep G2 cells [4] = experiment: In vitro toxicity (CellTiter-Glo cell viability), Hep G2; format: cell-based; conditions: cirRNA (SEQ ID NO: 1) LNPs; Hep G2 cells;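 note: percent of untreated cells luminescence signal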
Method in brief: as §2

Hep G2 cells [5] = experiment: In vitro expression of firefly-luciferase, Hep G2; format: cell-based; conditions: cirRNA (SEQ ID NO: 1) LNPs; firefly-luciferase luminescence; Hep G2 cells
Method in brief: (§3)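 Luminescence from cell lysates reports expression: luciferase activity was measured 72 h after transfection with 100 ng/mL RNA-LNPs encoding firefly luciferase.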

[6] = LNP zeta potential (Zetasizer); format: physicochemical; conditions: LNP with cirRNA (SEQ ID NO: 1)
Method in brief: as §1

RAW 264.7 cells [7] = experiment: In vitro expression of firefly-luciferase, RAW 264.7; format: cell-based; conditions: cirRNA (SEQ ID NO: 1) LNPs; firefly-luciferase luminescence; RAW 264.7 cells
Method in brief: as §3

| SMILES | PDI [1] | Size [1] | In vivo Expression (Whole Body) (BALB/C mice) | In vitro Viability RAW (RAW 264.7 cells [2]) [%] | Encapsulation Efficiency % [3] [%] | In vitro Viability HepG2 (Hep G2 cells [4]) [%] | In vitro Expression HepG2 (Hep G2 cells [5]) | Zeta (mV) [6] [mV] | In vitro Expression RAW (RAW 264.7 cells [7]) |
| --- | --- | --- | --- | --- | --- | --- | --- | --- | --- |
| CCCCCCCCCCC(CCCCCCCC)COC(=O)CCCCCN(CCCCCC(=O)OCC(CCCCCCCC)CCCCCCCCCC)CCOC(=O)NCCCN(C)C (stereo not drawn) [Lipid 166] | 0.2013 | 71.24 | 6.43E+05 | 12 | 78 | 22 | 2.17E+07 | 4.157 | 1.48E+06 |
| CCCCCCCCCC(=O)OCCCCCCCN(CCCCCCCCOC(=O)C(CCCCCC)CCCCCCCC)CCOC(=O)NCCCN(CC)CC (stereo not drawn) [Lipid 199] | 0.436 | 97.91 | 3.44E+05 | 0 | 94 | 87 | 3.74E+05 | 13.62 | 1.29E+03 |
| CCCCCCCCCCCOC(=O)CCCCCN(CCCCCCCC(=O)OC(CCCCCCCC)CCCCCCCC)CCOC(=O)NCCN1CCCC1 [Lipid 164] | 0.2218 | 76.41 | 7.11E+07 | 86 | 75 | 74 | 3.92E+06 | 3.42 | 9.56E+04 |
| CCCCCCCCCCCOC(=O)CCCCCN(CCCCCCCC(=O)OC(CCCCCCCC)CCCCCCCC)CCOC(=O)NCCN(C)C [Lipid 158, heptadecan-9-yl 2-methyl-6-oxo-10-(6-oxo-6-(undecyloxy)hexyl)-7-oxa-2,5,10-triazaoctadecan-18-oate] | 0.2315 | 97.72 | 1.62E+07 | 0 | 72 | 64 | 1.24E+06 | 6.058 | 1.37E+04 |
| CCCCCCCCCC(=O)OCCCCCCCN(CCCCCCCCOC(=O)C(CCCCCC)CCCCCCCC)CCCOC(=O)NCCCN(CC)CC (stereo not drawn) [Lipid 361] | 0.438 | 91.91 | 1.10E+06 | 4 | 88 | 114 | 1.62E+05 | 8.107 | 2.97E+03 |
| CCCCCCCCC(CCCCCC)C(=O)OCCCCCCCCN(CCCCCCCCOC(=O)C(CCCCCC)CCCCCCCC)CCCOC(=O)NCCN1CCCC1 (stereo not drawn) [Lipid 379] | 0.1919 | 117.2 | 2.86E+07 | 72 | 92 | 45 | 1.16E+07 | 3.38 | 1.60E+06 |
| CCCCC/C=C\C/C=C\CCCCCCCCN(CCCCCCCC(=O)OC(CCCCCCCC)CCCCCCCC)CCCOC(=O)NCCCN(C)C [Lipid 275] | 0.2727 | 60 | 3.66E+06 | 129 | 95 | 102 | 7.54E+06 | 6.337 | 4.30E+05 |
| CCCCCCCOC(=O)CCCCCCCCCN(CCCCCCCCCC(=O)OCCCCCCC)CCOC(=O)NCCN(C)C [Lipid 120, heptyl 10-(10-(heptyloxy)-10-oxodecyl)-2-methyl-6-oxo-7-oxa-2,5,10-triazaicosan-20-oate] | 0.09314 | 143.8 | 3.33E+05 | 81 | 96 | 100 | 2.13E+03 | 9.34 | 8.51E+03 |
| CCCCCCCCCC(=O)OCCCCCCCN(CCCCCCCCOC(=O)C(CCCCCC)CCCCCCCC)CCCOC(=O)NCCCn1ccnc1 (stereo not drawn) [Lipid 356] | 0.423 | 336.5 | 5.24E+05 | 84 | 77 | 112 | 1.96E+03 | −0.5834 | 1.06E+04 |
| CCCCCCCCCC(=O)OCCCCCCCN(CCCCCCCCOC(=O)C(CCCCCC)CCCCCCCC)CCOC(=O)NCCCN1CCCCC1 (stereo not drawn) [Lipid 358] | 0.1606 | 81.33 | 2.29E+07 | 83 | 87 | 121 | 1.88E+05 | 1.109 | 9.81E+03 |
| CCCCC/C=C\C/C=C\CCCCCCCCN(CCCCCCCC/C=C\C/C=C\CCCCC)CCOC(=O)NCCN1CCCCC1 [Lipid 85] | 0.1671 | 81.48 | 1.96E+07 | 105 | 91 | 78 | 2.85E+07 | 4.031 | 5.74E+05 |
| CCCCCCCCCC(=O)OCCCCCCCN(CCCCCCCCOC(=O)C(CCCCCC)CCCCCCCC)CCCOC(=O)NCCCN(C)C (stereo not drawn) [Lipid 355] | 0.2834 | 64.55 | 7.94E+05 | 72 | 90 | 123 | 1.70E+03 | 8.299 | 9.80E+02 |
| CCCCCCCCCCC(CCCCCCCC)COC(=O)CCCCCN(CCCCCC(=O)OCC(CCCCCCCC)CCCCCCCCCC)CCOC(=O)NCCN1CCOCC1 (stereo not drawn) [Lipid 174] | 0.0911 | 57.29 | 5.15E+07 | 92 | 89 | 89 | 1.56E+05 | −4.35 | 1.30E+04 |
| CCCCCCCCCCCOC(=O)CCCCCN(CCCCCCCC(=O)OC(CCCCCCCC)CCCCCCCC)CCOC(=O)NCCCN(C)C [Lipid 162] | 0.3875 | 86.23 | 1.01E+06 | 86 | 76 | 83 | 4.27E+05 | 14.91 | 3.76E+03 |
| CCCCCCCCC(CCCCCCCC)OC(=O)CCCCCCCN(CCCCCCCCOC(=O)C(CCCCCC)CCCCCCCC)CCCOC(=O)NCCCN(CC)CC (stereo not drawn) [Lipid 346] | 0.264 | 111.1 | 3.59E+06 | 93 | 95 | 73 | 1.02E+06 | −0.00452 | 1.46E+05 |
| CCCCCCCCCCCOC(=O)CCCCCN(CCCCCCCCOC(=O)C(CCCCCC)CCCCCCCC)CCOC(=O)NCCN1CCOCC1 (stereo not drawn) [Lipid 223] | 0.08837 | 60.01 | 5.53E+06 | 76 | 92 | 92 | 6.42E+04 | −2.046 | 4.76E+04 |
| CCCCC/C=C\C/C=C\CCCCCCCCN(CCCCCCCC(=O)OC(CCCCCCCC)CCCCCCCC)CCOC(=O)NCCN1CCOCC1 [Lipid 134, heptadecan-9-yl 8-((2-(((2-morpholinoethyl)carbamoyl)oxy)ethyl)((9Z,12Z)-octadeca-9,12-dien-1-yl)amino)octanoate] | 0.043 | 89.71 | 8.93E+05 | 84 | 90 | 13 | 3.17E+04 | −8.698 | 5.25E+04 |
| CCCCCCCOC(=O)CCCCCCCCCN(CCCCCCCCCC(=O)OCCCCCCC)CCOC(=O)NCCN1CCCC1 [Lipid 119, diheptyl 10,10′-((2-(((2-(pyrrolidin-1-yl)ethyl)carbamoyl)oxy)ethyl)azanediyl)bis(decanoate)] | 0.064 | 142.1 | 9.30E+05 | 8 | 96 | 17 | 1.46E+03 | 9.53 | 1.47E+04 |
